{"source": "PubChem BioAssay AID504731", "about": "(National Center for Advancing Translational Sciences (NCATS), 2011)", "system": "mouse liver microsomes, T1/2, LC-MS/MS", "test": "Allosteric/Competitive Inhibitors of Caspase 1: Metabolic Stability Profiling", "conditions": "at 1 µM; active compounds read high", "source_text": "The caspases (Cysteine Aspartyl Protease) comprise a related family of 14 dimeric proteases that are critical mediators of apoptosis (programmed cell death) and inflammation. The caspases represent an important class of drug targets for stroke, ischemia, cancer and inflammatory diseases. The goal of this project was to identify compounds that act as selective inhibitors caspase 1. To identify both allosteric and competitive inhibitors of caspase 1, the enzyme was screened using a pro-fluorescent substrate in a qHTS format. […] Mouse liver microsomes are created through broken up endoplasmic reticulum from mouse liver. These liver microsomes contain many drug metabolizing enzymes, such as Cytochome P-450s and flavin-containing monooxygenases. Because metabolism is major way of drug clearance, this is an important result. H Chemical Genomics Center [NCGC] NIH Molecular Libraries Probe Production Centers Network [MLPCN] MLSCN Grant: 1 X01 MH078950-01 PI Name: Dr. James Wells\n1uM of compound in incubated in mouse liver microsome; the reference compound is ketanserin. Compounds are incubated at 37 degrees C for different time periods: 0, 5, 15, 30, 45, and 60 minutes. Samples are analyzed with LC-MS/MS.", "data": [{"smiles": "CC(C)(C)[C@H](NC(=O)c1ccc(N)c(Cl)c1)C(=O)N1CCC[C@H]1C(=O)N[C@H](C#N)CC(=O)O", "values": [{"measurement": "half-life", "result": 3.43, "unit": "h"}]}]}
